Measurements taken from patent US7259232B1, “Preferred segments of neural thread protein” (Nymox Pharmaceutical Corporation, priority 2000, dated 2007).

B1: Protein G: Protein G, binds antibody through the Fc region; used as column (protein)
chain: TYKLILNGKTLKGETTTEAVDAATAEKVFKQYANDNGVDGEWTYDDATKTFTVTEKPEVIDASELTPAVTTYKLVINGKTLKGETTTKAVDAETAEKAFKQYANDNGVDGVWTYDDATKTFTVTE

Key:
rabbit IgG = test: Precipitation of rabbit immunoglobulin by Harlil peptide (Example 3); conditions: start 3.4 mg RGG + 1 mg NTP-3, pH 7, dialyzed overnight
Protocol: The purpose of this example was to show the self-aggregation ability of a Harlil peptide. The Harlil peptide NTP-3 forms disulfide bonds (because of the cysteine residue) and dimerizes at neutral pH. Since the dimerized peptide can bind two immunoglobulins, it can cause precipitation.
1 mg of the Harlil peptide NTP-3 in 1 mL of dimethylsulfoxide (DMSO) was added to 3.4 mg of rabbit IgG (Jackson Immunoresearch, West Grove, Pa.) at pH 7. The mixture was allowed to dialyze over night, and a clear white precipitate was observed the next morning. The precipitate was removed by centrifugation and the protein concentration of the supernatant was determined by absorbance at 280 nm using a Perkin Elmer spectrophotometer model Lambda 3B. Precipitation of immunoglobulin is prevented at a low pH, e.g., pH of 3.5 or less 3.5.

[1] = test system: NTP3-RGG coated microtiter plate; test: Microtiter plate assay: inhibition of conjugate binding to Harlil peptide coated plate (Example 5); conditions: monomer (unconjugated) peptide; peroxidase conjugated rabbit IgG; FIG. 2
Protocol: Preparation of Microtiter Plate: The Harlil peptide/immunoglobulin complex NTP3-RGG, in a ratio of 30:1 and prepared as in Example 4, was coated on an Immulon 4 microtiter plate (Dynex, Chantilly, Va.) at a concentration of 0.5 μg/well.
Standards: Recombinant NTP in TBS (described in de la Monte et al., J. of Neuropath. Exp. Neurol., 55:1038-1050 (1996)). 0.01% azide (Nymox Pharm. Corp., Lot 4-7-98), was serially diluted into TBS. 100 μl of each dilution was incubated at pH 3.5 for one hour. The dilutions were then washed for fifteen minutes in TBS, 0.1% albumin, and 0.05% Tween 80. This was followed by 3 washes in TBS and 0.05% Tween 80. Microtiter Plate Assay: 100 μl of 1:8000 dilution of peroxidase conjugated rabbit IgG (Jackson Immunoresearch, West Grove, Pa.) was then added and allowed to react for 30 minutes. The microtiter plate was washed twice with TBS and 0.05% Tween 80, followed by the addition of 150 μl of […] (TMB) (Serex Inc., Maywood, N.J.). The mixture was then incubated for 10 min. and stopped with 50 μl of 2 N HCl. Absorbance was read in a SLT 340 ATTC spectrophotometer.

NTP [2] = test: NTP immunoreactivity of Harlil peptides conjugated to rabbit IgG (Example 1); assay type: binding; conditions: peptides conjugated to maleimide activated Rabbit IgG
Chain of NTP (as listed by the source): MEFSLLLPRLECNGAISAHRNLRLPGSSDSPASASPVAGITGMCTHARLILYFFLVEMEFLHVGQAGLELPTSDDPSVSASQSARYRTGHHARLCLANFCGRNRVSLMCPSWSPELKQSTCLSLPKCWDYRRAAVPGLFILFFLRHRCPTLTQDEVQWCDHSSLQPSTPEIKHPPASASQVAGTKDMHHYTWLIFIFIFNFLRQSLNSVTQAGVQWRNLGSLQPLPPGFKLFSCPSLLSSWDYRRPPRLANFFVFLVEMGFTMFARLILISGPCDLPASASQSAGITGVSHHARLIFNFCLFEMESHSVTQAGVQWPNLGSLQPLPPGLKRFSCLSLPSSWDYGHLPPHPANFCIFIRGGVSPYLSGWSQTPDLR
Description: The following Harlil sequences were synthesized (Synpep, Dublin Calif.) and conjugated to maleimide activated Rabbit IgG (Jackson Immunoresearch, West Grove Pa.) and assessed for their NTP immunoreactivity. […] (SEQ ID NOS 4-11, respectively, in order of appearance)
Conjugation to carrier proteins was through a cysteine. Thus, peptides NTP-1 and NTP-2 produced mixed conjugate results because there is more than one cysteine residue. Therefore, for peptides NTP-5 and NTP-6, the secondary cysteine was blocked with ACM.

NTP [3] = test: Affinity purification of NTP from AD patient urine on NTP-3 agarose column, activity by 7C Gold strip (Example 2); assay type: binding, human; conditions: pH 2 eluate, gel bands assayed with 7C Gold, activity only in 35-45 kD band
Protocol: Preparation of the Urine Sample Containing NTP for Testing: The biological source of NTP used was the urine of a patient (BOU1) diagnosed with AD. Before application to the column material, the biological sample was processed according to the following protocol for processing of urine for AD testing: • 1. The urine was tested with an Ames Multistix™ (Bayer, Ind.). […] The urine was centrifuged at 3000×g for 15 minutes to remove cellular debris. • 3. The urine was filtered using a syringe through a 0.22 μm cellulose acetate filter, and the filtrate was brought to 0.05% azide. • 4. The resultant aliquot was placed in the top reservoir of an Amicon Centricon® YM-10 Millipore, and centrifuged at 3000×g for one hour. • 5. […] Protein Concentration: The protein concentration in the eluate was 108 μg, as determined by Coomassie Blue staining (BioRad, Hercules, Calif.). […] Protein concentration was 145 μg, as determined by Bicinchoninic Acid Kit (Cat. # 23223, BioRad). Absorbance corrected for the buffer at 280 nm was 390, indicating 390 μg of protein. The larger protein amount obtained with absorbance measurement is likely a result of the presence of a large amount of aromatic amino acids in NTP, which can cause overestimation of protein using this measurement technique. […]

NTP [4] = test: Protein G column pass-through of NTP positive and negative samples (Example 7); assay type: binding; conditions: NTP positive and negative samples passed through Protein G column; NTP not significantly reduced
Description: Protein G binds antibody through the Fc region. […] Specifically, since Harlil peptides recognize Harlil peptides, Harlil peptides recognize the Fc region of antibody, and Protein G recognizes the Fc region of antibody, this experiment determined whether Protein G recognizes NTP.
Both an NTP positive and an NTP negative sample were passed through a Protein G column.

| Molecule | % Protein Precipitated (rabbit IgG) [%] | inhibition of conjugate binding to the plate [1] | NTP immunoreactivity (NTP [2]) | binding of NTP by NTP-3 affinity column (NTP [3]) | binding of Protein G to NTP (NTP [4]) |
| --- | --- | --- | --- | --- | --- |
| C A R Y R T G H H A R L M (CARYRTGHHARLM) [NTP-3] | 39 | inhibits the binding of conjugate to the plate | good reactivity | selectively bound the NTP protein | – |
| B1 | – | – | – | – | does not bind to NTP |
